Drawing on ChEMBL document CHEMBL3351501, “Inhibition of pseudolysin and thermolysin by hydroxamate-based MMP inhibitors” (Eur J Med Chem, 2015), this text covers IC50 for 14 molecules.

Where only a bound is given, the exact number is not on record here.

The target of assay [1] is T1, Elastase (Pseudomonas aeruginosa (strain ATCC 15692 / PAO1 / 1C / PRS 101 / LMG12228), UniProt P14756). In words: Inhibition of Pseudomonas aeruginosa pseudolysin using Abz-Ala-Gly-Leu-Ala-p-nitrobenzylamide as substrate after 15 mins.
T1 sequence (P14756 whole entry): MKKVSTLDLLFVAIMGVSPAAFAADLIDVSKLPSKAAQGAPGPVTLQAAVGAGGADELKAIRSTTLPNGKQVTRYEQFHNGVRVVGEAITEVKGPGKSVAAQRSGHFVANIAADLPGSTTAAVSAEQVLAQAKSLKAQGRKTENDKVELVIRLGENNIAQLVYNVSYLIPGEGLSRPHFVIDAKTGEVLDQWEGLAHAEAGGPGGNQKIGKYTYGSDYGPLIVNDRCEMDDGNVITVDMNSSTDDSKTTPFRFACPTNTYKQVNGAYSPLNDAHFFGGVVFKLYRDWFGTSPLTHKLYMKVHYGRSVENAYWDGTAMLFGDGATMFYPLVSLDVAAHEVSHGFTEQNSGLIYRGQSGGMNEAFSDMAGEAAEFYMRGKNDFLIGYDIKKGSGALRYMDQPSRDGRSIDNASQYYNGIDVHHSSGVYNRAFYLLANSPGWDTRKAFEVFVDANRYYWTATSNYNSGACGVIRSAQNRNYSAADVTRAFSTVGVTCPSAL
The nature of assay [2]: Inhibition of Bacillus thermoproteolyticus thermolysin using Mca-Arg-Pro-Pro-Gly-Phe-Ser-Ala-Phe-Lys-(Dnp)-OH as substrate after 1 hr by fluorescence assay in presence of Brij-35.
Assay [3] has as its target T1, Elastase. In words: Inhibition of Pseudomonas aeruginosa pseudolysin using Mca-Arg-Pro-Pro-Gly-Phe-Ser-Ala-Phe-Lys-(Dnp)-OH as substrate after 1 hr by fluorescence assay in presence of Brij-35.

For orientation: IC50 means the concentration needed to halve the response being measured. On to `COc1ccc(S(=O)(=O)N(CC(=O)O)CC(=O)NCCc2ccc(S(N)(=O)=O)cc2)cc1`, for which the IC50 against Elastase [1] was over 282 µM; in assay [2], 637 µM.

As for `COc1ccc(S(=O)(=O)N(CC(=O)NO)CC(=O)NCCc2ccc(S(N)(=O)=O)cc2)cc1`, the IC50 against Elastase [1] was found to be 15 µM; on Elastase [3] it was 33 µM; in assay [2], 164 µM.

Consider `NS(=O)(=O)c1ccc(CCNC(=O)CN(CC(=O)NO)S(=O)(=O)c2ccc(Oc3ccccc3)cc2)cc1`, for which the IC50 is 16 µM on Elastase [1], 276 µM on Elastase [3] and 160 µM in assay [2].

For `NS(=O)(=O)c1ccc(CCNC(=O)CN(CC(=O)NO)S(=O)(=O)c2ccc(-c3ccccc3)cc2)cc1`, the IC50 came out at 31 µM on Elastase [1] and 67 µM in assay [2].

As to `NS(=O)(=O)c1ccc(CCNC(=O)CN(CC(=O)NO)Cc2ccccc2)cc1`, the IC50 on Elastase [1] is 0.4 µM; in assay [2], 12 µM.

Take `O=C(O)CN(CC(=O)NO)Cc1ccc([N+](=O)[O-])cc1`: the results for the IC50 (against Elastase [1]; in assay [2]) were 20 µM and 755 µM, respectively.

As to `O=C(O)CN(CC(=O)NO)Cc1ccc(-c2ccccc2)cc1`, the half-inhibitory concentration (IC50) was over 121 µM against Elastase [1] and over 1000 µM in assay [2].

On to `O=C(O)CN(CC(=O)NO)Cc1ccc(Oc2ccccc2)cc1`, for which the concentration for half-maximal inhibition (IC50) at Elastase [1] is over 200 µM; on Elastase [3], 430 µM; in assay [2], 524 µM.

Consider `O=C(O)CN(CC(=O)NO)S(=O)(=O)c1ccc(-c2ccccc2)cc1`, for which the IC50 is over 150 µM at Elastase [1], 241 µM on Elastase [3] and 440 µM in assay [2].

For the molecule `O=C(O)CN(CC(=O)NO)NCCCN1CCN(c2ccccc2)CC1`, the half-inhibitory concentration (IC50) against Elastase [1] was over 330 µM; in assay [2], over 1000 µM.

In the case of `O=C(CN(CC(=O)NCCCN1CCN(c2ccccc2)CC1)Cc1ccccc1)NO`, the IC50 against Elastase [1] is 6.7 µM; on Elastase [3], 2.8 µM; in assay [2] it was 8 µM.

In the case of `O=C(O)CN(CC(=O)NO)S(=O)(=O)c1ccc(Oc2ccccc2)cc1`, the concentration for half-maximal inhibition (IC50) was over 186 µM against Elastase [1], 46 µM on Elastase [3] and 114 µM in assay [2].

As to `COc1ccc(S(=O)(=O)N(CC(=O)O)CC(=O)NO)cc1`, the IC50 is 169 µM against Elastase [1], 153 µM at Elastase [3] and 270 µM in assay [2].

Regarding `CC(C)[C@H](C(=O)NO)N(CC(=O)O)S(=O)(=O)c1ccc(Oc2ccccc2)cc1`, the IC50 on Elastase [1] is 82 µM; at Elastase [3], 336 µM; in assay [2], over 1000 µM.
